In patent US20210139517A1, “BICYCLIC HETEROARYL COMPOUNDS AND USES THEREOF” (Revolution Medicines, Inc., priority 2019, published 2021) one finds Kd and IC50 data, which are given here for 30 molecules.

Experiment [1] deals with T1, SOS1 catalytic domain (residues 564-1049) (Homo sapiens, UniProt Q07889).
T1 sequence (Q07889 564-1049): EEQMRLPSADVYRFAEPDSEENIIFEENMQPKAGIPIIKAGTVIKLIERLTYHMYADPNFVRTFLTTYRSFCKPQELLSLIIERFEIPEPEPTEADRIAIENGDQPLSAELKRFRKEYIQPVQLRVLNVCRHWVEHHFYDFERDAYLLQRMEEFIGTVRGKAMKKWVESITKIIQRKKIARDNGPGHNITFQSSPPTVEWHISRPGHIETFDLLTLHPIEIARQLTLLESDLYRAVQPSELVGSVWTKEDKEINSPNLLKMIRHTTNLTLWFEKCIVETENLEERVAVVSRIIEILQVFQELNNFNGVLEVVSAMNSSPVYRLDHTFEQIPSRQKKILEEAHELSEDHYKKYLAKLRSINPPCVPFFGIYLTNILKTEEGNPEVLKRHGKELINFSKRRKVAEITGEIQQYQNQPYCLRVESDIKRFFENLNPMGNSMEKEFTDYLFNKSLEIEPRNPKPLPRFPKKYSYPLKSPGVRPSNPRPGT
As to the kind of experiment: SOS1 SPR binding affinity assay (Biacore 8K). Background: SPR reads the build-up and loss of mass on a sensor chip optically.

The target in experiment [2] is T2, SOS1 nucleotide exchange of wild-type KRAS (SOS1 catalytic domain residues 564-1049; KRAS residue 1-169) (Homo sapiens, UniProt Q07889).
T2 sequence (Q07889 564-1049): T1 sequence (Q07889 564-1049)
As to the kind of experiment: Inhibition of SOS1 nucleotide exchange activity of KRAS (TR-FRET). It counts as biochemical. For orientation: Time-resolved FRET reads energy transfer from a long-lived donor to a nearby acceptor.

In experiment [3] the test system is SOS1 function in cells: cellular pERK in PC-9 cells (EGFR Ex19Del). Put plainly: pERK potency assay in PC-9 cells (AlphaLISA SureFire Ultra p-ERK1/2). Conditions: 1 hour incubation. It counts as cell-based. Here is the method: The purpose of this assay is tomeasure the ability of test compounds to inhibit SOS1 function in cells. SOS1 activates RAS proteins by catalyzing the conversion of RAS-GDP to RAS-GTP in response to receptor tyrosine kinase activation. […] The procedure described below measures the level of cellular pERK in response to test compounds in PC-9 cells (EGFR Ex19Del).
PC-9 cells were grown and maintained using media and procedures recommended by the ATCC. On the day prior to compound addition, cells were plated in 384-well cell culture plates (40 μL/well) and grown overnight in a 37° C., 5% CO2 incubator. Test compounds were prepared in 10, 3-fold dilutions in DMSO, with a top concentration of 10 mM. On the day of the assay, 40 nL of test compound was added to each well of cell culture plate using an Echo550 liquid handler (LabCyte). Concentrations of test compound were tested in duplicate with highest test concentration being 10 μM. After compound addition, cells were incubated for 1 hour at 37° C., 5% CO2. Following incubation, culture medium was removed and cells were washed once with phosphate buffered saline.
Cellular pERK level was determined using the AlphaLISA SureFire Ultra p-ERK1/2 Assay Kit (PerkinElmer). Cells were lysed in 25 μL lysis buffer, with shaking at 600 RPM at room temperature for 15 minutes. Lysate (10 μL) was transferred to a 384-well Opti-plate (PerkinElmer) and 5 μL acceptor mix was added. The plate was centrifuged at 1000 RPM for 1 minute, and incubated in the dark for 2 hours. Following this incubation, 5 μL of donor mix was added, the plate was sealed and centrifuged at 1000 RPM for 1 minute, and the mixture was incubated for 2 hours at room temperature. Signal was read on an Envision plate reader (PerkinElmer) using standard AlphaLISA settings. Analysis of raw data was carried out in Excel (Microsoft) and Prism (GraphPad). Signal was plotted vs. the decadal logarithm of compound concentration, and IC50 was determined by fitting a 4-parameter sigmoidal concentration response model.
For orientation: Alpha assays give light when donor and acceptor beads are brought close together.

The mark [4] stands for this setting: avi-tagged SOS1 catalytic domain immobilized on streptavidin chip, equilibrium 1:1 binding fit, read-out: SOS1 SPR Equilibrium Kd.
The mark [5] stands for this setting: SOS1 nucleotide exchange of wild-type KRAS, three replicates, four-parameter logistic fit, read-out: TR-FRET IC50.

One may read the Kd as the constant that tells how readily two partners part at equilibrium. A word on the IC50: it is the concentration at which inhibition is half-maximal.

Like-named read-outs stand apart in the source and are kept apart here.

With `Cc1nc(N[C@H](C)c2cccc(C(F)F)c2F)c2cc(C(=O)N3CCOCC3)c(=O)n(C)c2n1` [Example 26, 4-{[(1R)-1-[3-(difluoromethyl)-2-fluorophenyl]ethyl]amino}-2,8-dimethyl-6-(morpholine-4-carbonyl)-7H,8H-pyrido[2,3-d]pyrimidin-7-one], in experiment [1] (setting [4]), the dissociation constant (Kd) was found to be 115 nM. Besides, the IC50 in experiment [2] (setting [5]) turned out to be 70.2 nM. In the case of `C[C@@H](Nc1ncnc2c1cc(C(=O)N1CC3CCC(C1)O3)c(=O)n2C)c1cccc(C(F)F)c1F` [Example 26-19], the Kd in experiment [1] (setting [4]) worked out at 148 nM. For the same molecule, in experiment [2] (setting [5]), the IC50 was 65.4 nM. As for `CO[C@]1(c2cc3c(N[C@H](C)c4cccc(C(F)F)c4F)ncnc3n(C)c2=O)CCN(C(C)=O)C1` [Example 32-19], the Kd in experiment [1] (setting [4]) was found to be 6.92 nM. In addition, in experiment [2] (setting [5]), the IC50 was determined as 8.82 nM. With `Cc1nc(N[C@H](C)c2cccc(C(F)(F)CO)c2)c2cc(C3=CCNCC3)c(=O)n(C)c2n1` [Example 4, (R)-4-((1-(3-(1,1-difluoro-2-hydroxyethyl)phenyl)ethyl)amino)-2,8-dimethyl-6-(1,2,3,6-tetrahydropyridin-4-yl)pyrido[2,3-d]pyrimidin-7(8H)-one], binding in experiment [1] was put at a Kd of 7.97 nM. Half-maximal inhibition in experiment [2] (IC50) required 10.8 nM. In the case of `C[C@@H](Nc1ncnc2c1cc(C1=CC[S+]([O-])CC1)c(=O)n2C)c1cccc(C(F)F)c1F` (stereo partly drawn) [Example 22, 4-(((R)-1-(3-(difluoromethyl)-2-fluorophenyl)ethyl)amino)-8-methyl-6-(1-oxido-3,6-dihydro-2H-thiopyran-4-yl)pyrido[2,3-d]pyrimidin-7(8H)-one], in experiment [1] (setting [4]), the Kd worked out at 34.2 nM. Besides, the IC50 in experiment [2] (setting [5]) turned out to be 298 nM. `Cc1nc(N[C@H](C)c2cccc(C(F)(F)F)c2)c2cc(N3CCOCC3)c(=O)n(C)c2n1` [Example 10, 2,8-dimethyl-6-(morpolin-4-yl)-4-[[(1R)-1-[3-(trifluoromethyl)phenyl]ethyl]amino]-7H,8H-pyrido[2,3-d]pyrimidin-7-one]: the half-inhibitory concentration (IC50) in experiment [3] (Homo sapiens, PC-9, 1 h) worked out at 787 nM; in experiment [2] (setting [5]), 178 nM.

For the molecule `C[C@@H](Nc1ncnc2c1cc(Sc1ccccc1)c(=O)n2C)c1cccc(C(F)F)c1F` [Example 30, 4-{[(1R)-1-[3-(difluoromethyl)-2-fluorophenyl]ethyl]amino}-8-methyl-6-(phenylsulfanyl)-7H,8H-pyrido[2,3-d]pyrimidin-7-one], the IC50 in experiment [2] (setting [5]) is 10900 nM. As to `Cc1nc(N[C@H](C)c2cc(N)cc(C(F)(F)F)c2)c2cc(C3CCNCC3)c(=O)[nH]c2n1` [Example 8, (R)-4-((1-(3-amino-5-(trifluoromethyl)phenyl)ethyl)amino)-2-methyl-6-(piperidin-4-yl)pyrido[2,3-d]pyrimidin-7(8H)-one], the IC50 in experiment [2] (setting [5]) is 22.2 nM. For `C[C@@H](Nc1ncnc2c1cc(C1=CCOCC1)c(=O)n2C)c1cccc(C(F)(F)F)c1` [Example 5, (R)-6-(3,6-dihydro-2H-pyran-4-yl)-8-methyl-4-((1-(3-(trifluoromethyl)phenyl)ethyl)amino)pyrido[2,3-d]pyrimidin-7(8H)-one], the IC50 in experiment [2] (setting [5]) was found to be 113 nM. As for `COC1(c2cc3c(N[C@H](C)c4cccc(C(F)F)c4F)ncnc3n(C)c2=O)CCS(=O)(=O)CC1` [Example 32, 4-(4-{[(1R)-1-[3-(difluoro-methyl)-2-fluorophenyl]ethyl]amino}-8-methyl-7-oxo-7H,8H-pyrido[2,3-d]pyrimidin-6-yl)-4-methoxy-1λ^6-thiane-1,1-dione], the equilibrium dissociation constant (Kd) in experiment [1] (setting [4]) came out at 39.6 nM. Regarding `C[C@@H](Nc1ncnc2c1cc(N1CCOCC1)c(=O)n2C1CC1)c1cccc(C(F)(F)F)c1` [Example 11, 8-cyclopropyl-6-(morpholin-4-yl)-4-{[(1R)-1-[3-(trifluoromethyl)phenyl]ethyl]amino}-7H,8H-pyrido[2,3-d]pyrimidin-7-one], the IC50 in experiment [3] (Homo sapiens, PC-9, 1 h) came out at 292 nM; in experiment [2] (setting [5]), 32.8 nM. Molecule `COC1(c2cc3c(N[C@H](C)c4cccc(C(F)F)c4F)ncnc3n(C)c2=O)CCC2(CC1)CS(=O)(=NC1CC1)C2` (stereo partly shown) [Example 32-83] yielded an IC50 in experiment [3] of 321 nM. Regarding `C[C@@H](Nc1ncnc2c1cc(-c1cnc(F)nc1)c(=O)n2C)c1cccc(C(F)F)c1F` [Example 21-5], in experiment [3], the IC50 turned out to be 1200 nM. As for `CC(=O)N1CCC(OC2CC2)(c2cc3c(N[C@H](C)c4cccc(C(F)F)c4F)ncnc3n(C)c2=O)C1` (stereo partly shown) [Example 32-70], 350 nM corresponded to half-maximal inhibition in experiment [3] (IC50). Same read-out and setting: then `C[C@@H](Nc1ncnc2c1cc(-c1ccc3nonc3c1)c(=O)n2C)c1cccc(C(F)F)c1F` [Example 21-8], with 334 nM; and `COC1(c2cc3c(N[C@H](C)c4cccc(C(F)F)c4C)ncnc3n(C)c2=O)CCN(C(C)=O)CC1` [Example 32-87], with 13.4 nM. Regarding `C[C@@H](Nc1ncnc2c1cc(C1(N)CCC3(CC1)CS(=O)(=O)C3)c(=O)n2C)c1cccc(C(F)F)c1F` [Example 31-5], in experiment [3], the IC50 turned out to be 26.7 nM. `C[C@@H](Nc1ncnc2c1cc(C1CCN(S(C)(=O)=O)CC1)c(=O)n2C)c1cccc(C(F)F)c1F` [Example 8-15] registered an IC50 in experiment [3] of 394 nM.

For the molecule `COC1(c2cc3c(N[C@H](C)c4cccc(C(F)F)c4F)ncnc3n(C)c2=O)CC2(COC2)C1` [Example 32-80], inhibition in experiment [3] was half-maximal at 154 nM (IC50). Still for that read-out and setting: then `COC1(c2cc3c(N[C@H](C)c4cccc(C(F)F)c4F)ncnc3n(C)c2=O)CC2CS(=O)(=O)CC2C1` (stereo partly shown) [Example 32-84], with 173 nM. The same measure, in the same setting: then `C[C@@H](Nc1ncnc2c1cc(C1CCN(C3COC3)CC1)c(=O)n2C)c1cccc(C(F)F)c1F` [Example 8-8], with 389 nM.

The molecule `CC(=O)N1CCC(c2cc3c(N[C@H](C)c4cccc(C(F)F)c4F)ncnc3n(C)c2=O)CC1` [Example 8-3] came in with an IC50 in experiment [3] of 145 nM. The same measure, in the same setting: for `C[C@@H](Nc1ncnc2c1cc(C1(O)CCN(C)CC1)c(=O)n2C)c1cccc(C(F)F)c1F` [Example 28-1] the value was 187 nM.

In the case of `CC(=O)N1CCC(c2cc3c(N[C@H](C)c4cc(N)cc(C(F)(F)F)n4)ncnc3n(C)c2=O)CC1` [Example 17, 6-(1-acetyl-4-piperidyl)-4-[[(1R)-1-[4-amino-6-(trifluoromethyl)-2-pyridyl]ethyl]amino]-8-methyl-pyrido[2,3-d]pyrimidin-7-one], the IC50 in experiment [3] (Homo sapiens, PC-9, 1 h) was determined as 377 nM. `COC1(c2cc3c(N[C@H](C)c4cccc(C(F)F)c4F)ncnc3n(C)c2=O)CC2CS(=O)(=O)CC2C1` (stereo partly shown) [Example 32-85] displayed an IC50 in experiment [3] of 53.7 nM. The same measure, in the same setting: then `COC1(c2cc3c(N[C@H](C)c4cccc(C(F)F)c4F)ncnc3n(C)c2=O)CCS(=O)(=O)C1` (stereo partly shown) [Example 32-74], with 201 nM.

In the case of `CN=S1(=O)CC=C(c2cc3c(N[C@H](C)c4cccc(C(F)F)c4F)ncnc3n(C)c2=O)CC1` (stereo partly drawn) [Example 24, 4-(((R)-1-(3-(difluoromethyl)-2-fluorophenyl)ethyl)amino)-8-methyl-6-(1-(methylimino)-1-oxido-1,2,3,6-tetrahydro-1λ^6-thiopyran-4-yl)pyrido[2,3-d]pyrimidin-7(8H)-one], in experiment [2] (setting [5]), the IC50 came to 13.5 nM. In turn, `COc1ncccc1-c1cc2c(N[C@H](C)c3cccc(C(F)F)c3F)ncnc2n(C)c1=O` [Example 21-7] had an IC50 in experiment [3] of 150 nM. Take `COc1ccc(Cc2cc3c(N[C@H](C)c4cccc(C(F)F)c4F)nc(C)nc3n(C)c2=O)cc1OC` [Example 20-1]: half-maximal inhibition in experiment [3] (IC50) required 6600 nM. In experiment [3], `Cc1nc(N[C@H](C)c2cccc(C(F)F)c2F)c2cc(C3CCS(=O)(=O)CC3)c(=O)n(C)c2n1` [Example 8-12] gave an IC50 of 138 nM.
